Measured values published in ChEMBL document CHEMBL1146559, “Dihydrolindbladiones, three new naphthoquinone pigments from a myxomycete Lindbladia tubulina” (J Nat Prod, 2003).
Converted amounts (≈) assume the structure as drawn.

Legend:
Assay type in all cases: functional, cell-based
[1] = system: P388; test: Cytotoxicity against vincristine-resistant mouse P388 cells
[2] = system: P388; test: Cytotoxicity against vincristine-resistant mouse P388 cells in presence of vincristine
[3] = system: P388; test: Cytotoxicity against vincristine-sensitive mouse P388 cells

CCCC(=O)CCC1=C(O)C(=O)c2cc(OC)c(OC)c(O)c2C1=O
IC50 [1]: > 50 µg/mL
IC50 [2]: > 50 µg/mL
IC50 [3]: > 50 µg/mL

CCCC(=O)CCC1=C(O)C(=O)c2cc(O)c(OC)c(O)c2C1=O
IC50 [1]: > 50 µg/mL
IC50 [2]: 13.8 µg/mL
IC50 [3]: > 50 µg/mL

CCCC(=O)CCC1=C(O)C(=O)c2cc(O)c(O)c(O)c2C1=O
IC50 [1]: 14 µg/mL (≈ 43.7 µM)
IC50 [2]: 12.6 µg/mL
IC50 [3]: 12.1 µg/mL (≈ 37.8 µM)
